Reference: the CheMixHub viscosity set
Values joined by “and” are separate entries in the source; they are usually repeats but may differ in a detail not shown here. Equal values may be shown once.

Test: xn = mol fraction of the nth substance listed

OCCCCO + CN(C)C=O
308.15 K, 101 kPa
Settings | viscosity [mPa·s]
x1 = 0.0565 | 0.762
x1 = 0.101 | 0.904
x1 = 0.1892 | 1.222
x1 = 0.2806 | 1.761
x1 = 0.3915 | 2.578
x1 = 0.4722 | 3.596
x1 = 0.5803 | 6.998
x1 = 0.6682 | 10.85
x1 = 0.7755 | 17.92
x1 = 0.8845 | 28.4
x1 = 0.9487 | 37.31

O=C1CCCN1 + CO
298.15 K, 100 kPa
Settings | viscosity
x1 = 0.0098 | 0.568 mPa·s
x1 = 0.0194 | 0.587 mPa·s
x1 = 0.0295 | 0.641 mPa·s
x1 = 0.0392 | 0.657 mPa·s
x1 = 0.0499 | 0.687 mPa·s
x1 = 0.059 | 0.671 mPa·s
x1 = 0.0688 | 0.691 mPa·s
x1 = 0.078 | 0.708 mPa·s
x1 = 0.0883 | 0.755 mPa·s
x1 = 0.0973 | 0.759 mPa·s
x1 = 0.0988 | 0.906 mPa·s
x1 = 0.2022 | 1.133 mPa·s
x1 = 0.2963 | 1.432 mPa·s
x1 = 0.3984 | 1.937 mPa·s
x1 = 0.4592 | 2.346 mPa·s
x1 = 0.5694 | 3.304 mPa·s
x1 = 0.6844 | 4.749 mPa·s
x1 = 0.7834 | 6.52 mPa·s
x1 = 0.8988 | 9.529 mPa·s and 9.56 mPa·s
x1 = 0.9076 | 9.83 mPa·s
x1 = 0.9213 | 10.34 mPa·s
x1 = 0.9308 | 10.66 mPa·s
x1 = 0.9383 | 10.97 mPa·s
x1 = 0.9496 | 11.39 mPa·s
x1 = 0.9615 | 11.92 mPa·s
x1 = 0.9741 | 12.35 mPa·s
x2 = 0.0101 | 13.03 mPa·s

[Cl-].[Cl-].[Cl-].[Cl-].[Sn+4] + O=C(O)CCl
323.15 K, 101 kPa
Settings | viscosity [mPa·s]
x1 = 0.025 | 3.305
x1 = 0.0506 | 3.944
x1 = 0.0951 | 4.193
x1 = 0.0957 | 4.1
x1 = 0.1491 | 4.17
x1 = 0.2041 | 3.921
x1 = 0.2511 | 2.927
x1 = 0.3456 | 2.003
x1 = 0.4928 | 1.41
x1 = 0.6663 | 0.948
x1 = 0.7708 | 0.836

O=P([O-])([O-])O.[Na+].[Na+] + O
viscosity [mPa·s]
Settings | 293.15 K | 298.15 K | 303.15 K | 308.15 K
100 kPa, x1 = 0.01115 | – | 1.215 | 1.095 | –
100 kPa, x1 = 0.01333 | 1.455 | – | – | –
100 kPa, x1 = 0.01698 | – | – | – | 1.175
101 kPa, x1 = 0.0018 | – | 0.948 | 0.8587 | 0.7663
101 kPa, x1 = 0.0054 | – | 1.05 | 0.968 | 0.8559
101 kPa, x1 = 0.0089 | – | 1.232 | 1.076 | 0.94
101 kPa, x1 = 0.012 | – | 1.441 | 1.228 | 1.152
101 kPa, x1 = 0.016 | – | 1.727 | 1.536 | 1.452

O=S=O + CC(C)=O
298.15 K, 101 kPa
Settings | viscosity [mPa·s]
x1 = 0.04866 | 0.3122
x1 = 0.1662 | 0.3313
x1 = 0.2057 | 0.3365
x1 = 0.2466 | 0.3415
x1 = 0.2858 | 0.343
x1 = 0.4007 | 0.3471

O=C(Cc1ccccc1)c1ccccc1 + CCCCCOC(C)=O
298.15 K, 101 kPa
Settings | viscosity [mPa·s]
x1 = 0.0268 | 0.8294
x1 = 0.0344 | 0.849

Cc1cc(C)cc(C)c1 + ClC(Cl)(Cl)Cl
298.15 K, 101 kPa
Settings | viscosity [mPa·s]
x1 = 0.1 | 0.8579
x1 = 0.2 | 0.8194
x1 = 0.3 | 0.7889
x1 = 0.4 | 0.7637
x1 = 0.5 | 0.7421
x1 = 0.6 | 0.7226
x1 = 0.7 | 0.7044
x1 = 0.8 | 0.6875
x1 = 0.9 | 0.672

Cc1ncc(CO)c(CO)c1O.Cl + O
101 kPa
Settings | viscosity
293.15 K, x1 = 0.001798 | 1.047 mPa·s
293.15 K, x1 = 0.0018 | 1.047 mPa·s
298.15 K, x1 = 0.00081 | 0.9087 mPa·s
298.15 K, x1 = 0.000909 | 0.918 mPa·s
298.15 K, x1 = 0.001809 | 0.95 mPa·s
298.15 K, x1 = 0.002028 | 0.9328 mPa·s
298.15 K, x1 = 0.002489 | 0.9415 mPa·s
298.15 K, x1 = 0.002657 | 0.96 mPa·s
298.15 K, x1 = 0.003638 | 0.99 mPa·s
298.15 K, x1 = 0.003926 | 0.9708 mPa·s
298.15 K, x1 = 0.004487 | 1.007 mPa·s
298.15 K, x1 = 0.004756 | 0.9841 mPa·s
298.15 K, x1 = 0.005406 | 1.027 mPa·s
298.15 K, x1 = 0.006266 | 1.04 mPa·s
298.15 K, x1 = 0.006666 | 1.03 mPa·s
298.15 K, x1 = 0.007307 | 1.06 mPa·s
298.15 K, x1 = 0.00813 | 1.073 mPa·s
298.15 K, x1 = 0.008945 | 1.084 mPa·s
298.15 K, x1 = 0.009813 | 1.108 mPa·s
303.15 K, x1 = 0.0018 | 0.832 mPa·s
303.15 K, x1 = 0.00359 | 0.8603 mPa·s and 0.8604 mPa·s
308.15 K, x1 = 0.002028 | 0.7519 mPa·s
308.15 K, x1 = 0.002489 | 0.7601 mPa·s
308.15 K, x1 = 0.003926 | 0.7829 mPa·s
308.15 K, x1 = 0.004756 | 0.7924 mPa·s
308.15 K, x1 = 0.006666 | 0.828 mPa·s
313.15 K, x1 = 0.001798 | 0.6798 mPa·s and 0.6802 mPa·s and 0.68 mPa·s
313.15 K, x1 = 0.00359 | 0.7025 mPa·s
313.15 K, x1 = 0.007154 | 0.7543 mPa·s and 0.7545 mPa·s
318.15 K, x1 = 0.002028 | 0.6236 mPa·s
318.15 K, x1 = 0.002489 | 0.6303 mPa·s
318.15 K, x1 = 0.003926 | 0.649 mPa·s
318.15 K, x1 = 0.004756 | 0.6605 mPa·s
318.15 K, x1 = 0.006666 | 0.6863 mPa·s
323.15 K, x1 = 0.001798 | 0.5675 mPa·s
323.15 K, x1 = 0.0018 | 0.5673 mPa·s
323.15 K, x1 = 0.005375 | 0.6071 mPa·s and 0.6075 mPa·s and 0.6074 mPa·s

CC(C)Cc1ccccc1 + COC(=O)c1ccccc1
viscosity [mPa·s], 101 kPa
Settings | x2 = 0.1256 | x2 = 0.2427 | x2 = 0.355 | x2 = 0.4602 | x2 = 0.5572 | x2 = 0.6486 | x2 = 0.7454 | x2 = 0.8333 | x2 = 0.9166
303.15 K | 0.957 | 1.001 | 1.057 | 1.127 | 1.195 | 1.274 | 1.363 | 1.467 | 1.555
313.15 K | 0.824 | 0.862 | 0.908 | 0.961 | 1.011 | 1.075 | 1.145 | 1.215 | 1.288

Cc1cc(C)cc(C)c1 + CCCO
293.15 K, 101 kPa
Settings | viscosity [mPa·s]
x2 = 0.2 | 0.748
x2 = 0.4 | 0.855
x2 = 0.6 | 1.075
x2 = 0.8 | 1.419

O=S=O + CCOC(C)=O
298.15 K, 101 kPa
Settings | viscosity [mPa·s]
x1 = 0.115 | 0.4299
x1 = 0.236 | 0.4289
x1 = 0.35 | 0.4239

Cc1cc(C)cc(C)c1 + C[N+](=O)[O-]
293.15 K, 101.33 kPa
Settings | viscosity [mPa·s]
x2 = 0.1192 | 0.686
x2 = 0.2065 | 0.683
x2 = 0.3019 | 0.679
x2 = 0.3858 | 0.679
x2 = 0.4761 | 0.674
x2 = 0.6061 | 0.671
x2 = 0.7112 | 0.666
x2 = 0.7985 | 0.657
x2 = 0.8912 | 0.648

CCCCCCCC/C=C\CCCCCCCC(=O)O + CN1CCC[C@H]1c1cccnc1
viscosity [mPa·s], 101 kPa
Settings | 298.15 K | 323.15 K
x2 = 0.1049 | 74.27 | 22.13
x2 = 0.1989 | 107 | 29.28
x2 = 0.2016 | 108 | 29.56
x2 = 0.2132 | 110.3 | 30.03
x2 = 0.2175 | 110.4 | 30.15
x2 = 0.2346 | 112.3 | 30.48
x2 = 0.2482 | 110.3 | 30.13
x2 = 0.2489 | 110 | 30.12
x2 = 0.2601 | 109.3 | 30.1
x2 = 0.2826 | 105.3 | 28.77
x2 = 0.298 | 102.5 | 28.02
x2 = 0.4102 | 73.48 | 22.19
x2 = 0.4841 | 51.84 | 17.6
x2 = 0.5948 | 34.19 | 12.35
x2 = 0.7031 | 20.12 | 8.136
x2 = 0.7939 | 11.7 | 5.197
x2 = 0.8975 | 7.276 | 3.432

O[C@H]1[C@H](O)[C@@H](O)[C@H](O)[C@@H](O)[C@H]1O + O
viscosity
Settings | x1 = 0.0018 | x1 = 0.002 | x1 = 0.00359 | x1 = 0.004 | x1 = 0.005 | x1 = 0.00538 | x1 = 0.00715 | x1 = 0.00893
293.15 K, 101 kPa | 1.051 mPa·s | – | 1.102 mPa·s | – | – | 1.154 mPa·s | 1.23 mPa·s | 1.281 mPa·s
293.15 K, 101.3 kPa | – | 1.035 mPa·s | – | 1.086 mPa·s | 1.138 mPa·s | – | – | –
298.15 K, 101.3 kPa | – | 0.945 mPa·s | – | 0.986 mPa·s | 1.006 mPa·s | – | – | –
303.15 K, 101 kPa | 0.836 mPa·s | – | 0.875 mPa·s | – | – | 0.911 mPa·s | 0.97 mPa·s | 1.001 mPa·s and 1.011 mPa·s
303.15 K, 101.3 kPa | – | 0.821 mPa·s | – | 0.861 mPa·s | 0.899 mPa·s | – | – | –
313.15 K, 101 kPa | 0.685 mPa·s | – | 0.728 mPa·s | – | – | 0.742 mPa·s | 0.789 mPa·s | 0.82 mPa·s
323.15 K, 101 kPa | 0.577 mPa·s | – | 0.601 mPa·s | – | – | 0.618 mPa·s | 0.658 mPa·s | 0.684 mPa·s
